Test system: S. tritici
Experiment: S. tritici infection of wheat seedlings after spraying first leaves (induced resistance)
Type: in vivo, Septoria tritici
Experimental: Wheat seedlings at the 2 leaf stage were used in the study. Plants were grown singly in pots and were split into two batches. First leaves were sprayed with pyraclostrobin at the recommended rate (first leaves of controls were sprayed with distilled water) and the plants to be used for disease assessment were inoculated with S. tritici once leaves had dried. Both first and second leaves were inoculated by spraying with a spore suspension of 1×10^5 spores/ml of distilled water containing a drop of Tween 20. Immediately after inoculation, pots were placed in water-saturated trays and covered with clear polyethene bags for 48 h. Thereafter plants were grown at 18° C. with 12 h/12 h light/dark alternation. Infection intensity was assessed 18 days after inoculation by estimating the % leaf area covered by symptoms.

Substance: pyraclostrobin
- reduced infection on first leaves (after 18 days, compared to non treated controls): 65%
- reduced infection on second leaves (after 18 days, compared to non treated controls, only first leaves sprayed): 61%
- Infection (% leaf area showing symptoms) First leaf (wheat seedlings, first leaves sprayed at the recommended rate, 18 days after inoculation, means ±SE of 10 replicates, pyraclostrobin-resistant isolate): 17 ± 2.3 % leaf area showing symptoms
- reduces S. tritici infection of first and second leaves (wheat seedlings, isolate resistant to pyraclostrobin): > 60%
- Infection (% leaf area showing symptoms) Second leaf (wheat seedlings, only first leaves sprayed at the recommended rate, 18 days after inoculation, means ±SE of 10 replicates, pyraclostrobin-resistant isolate): 16 ± 1.4 % leaf area showing symptoms

From US20080287426A1, “Method of Inducing Resistance to Harmful Fungi” (priority 2005, published 2008)
